Key:
Experiment in all cases: relative viability (nuclei count vs DMSO), 5 days (fraction); higher = more cells survive
AZD8055 + Trametinib = compound: COc1ccc(-c2ccc3c(N4CCOC[C@@H]4C)nc(N4CCOC[C@@H]4C)nc3n2)cc1CO [AZD8055] + CC(=O)Nc1cccc(-n2c(=O)n(C3CC3)c(=O)c3c(Nc4ccc(I)cc4F)n(C)c(=O)c(C)c32)c1 [Trametinib] (partner 0.02 µM)
Procedure, shortened: (§1)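 Relative viability is defined as nuclei in treated wells over nuclei in vehicle wells. Duplicate plates were run and medians reported. Lung cancer cell lines in 1536-well plates were dosed by pin tool one day after seeding, with one drug or with a fixed anchor-drug dose plus five library-drug doses (not always all listed) in √10 steps, and nuclei were counted after 5 days.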

AZD8055 + Lapatinib = compound: COc1ccc(-c2ccc3c(N4CCOC[C@@H]4C)nc(N4CCOC[C@@H]4C)nc3n2)cc1CO [AZD8055] + CS(=O)(=O)CCNCc1ccc(-c2ccc3ncnc(Nc4ccc(OCc5cccc(F)c5)c(Cl)c4)c3c2)o1 [Lapatinib] (partner 2 µM)
Procedure, shortened: as §1

AZD8055 + Phenformin = compound: COc1ccc(-c2ccc3c(N4CCOC[C@@H]4C)nc(N4CCOC[C@@H]4C)nc3n2)cc1CO [AZD8055] + N=C(N)NC(=N)NCCc1ccccc1 [Phenformin] (partner 250 µM)
Procedure, shortened: as §1

AZD8055 + Olaparib = compound: COc1ccc(-c2ccc3c(N4CCOC[C@@H]4C)nc(N4CCOC[C@@H]4C)nc3n2)cc1CO [AZD8055] + O=C(c1cc(Cc2n[nH]c(=O)c3ccccc23)ccc1F)N1CCN(C(=O)C2CC2)CC1 [Olaparib] (partner 8 µM)
Procedure, shortened: as §1

| Cell Line | relative viability (AZD8055 + Trametinib; first compound 0.01 µM) | relative viability (AZD8055 + Trametinib; first compound 0.03162 µM) | relative viability (AZD8055 + Trametinib; first compound 0.1 µM) | relative viability (AZD8055 + Trametinib; first compound 0.3162 µM) | relative viability (AZD8055 + Trametinib; first compound 1 µM) | relative viability (AZD8055 + Lapatinib; first compound 0.01 µM) | relative viability (AZD8055 + Lapatinib; first compound 0.03162 µM) | relative viability (AZD8055 + Lapatinib; first compound 0.1 µM) | relative viability (AZD8055 + Lapatinib; first compound 0.3162 µM) | relative viability (AZD8055 + Lapatinib; first compound 1 µM) | relative viability (AZD8055 + Phenformin; first compound 0.01 µM) | relative viability (AZD8055 + Phenformin; first compound 0.03162 µM) | relative viability (AZD8055 + Phenformin; first compound 0.1 µM) | relative viability (AZD8055 + Phenformin; first compound 0.3162 µM) | relative viability (AZD8055 + Phenformin; first compound 1 µM) | relative viability (AZD8055 + Olaparib; first compound 0.01 µM) | relative viability (AZD8055 + Olaparib; first compound 0.03162 µM) | relative viability (AZD8055 + Olaparib; first compound 0.1 µM) | relative viability (AZD8055 + Olaparib; first compound 0.3162 µM) | relative viability (AZD8055 + Olaparib; first compound 1 µM) |
| --- | --- | --- | --- | --- | --- | --- | --- | --- | --- | --- | --- | --- | --- | --- | --- | --- | --- | --- | --- | --- |
| LU99A | 0.403 | 0.337 | 0.308 | 0.203 | 0.191 | 0.824 | 0.458 | 0.329 | 0.218 | 0.228 | 0.802 | 0.626 | 0.492 | 0.276 | 0.28 | 0.293 | 0.226 | 0.161 | 0.183 | 0.168 |
| HCC-366 | 0.35 | 0.217 | 0.166 | 0.0931 | 0.0678 | 1.12 | 0.93 | 0.864 | 0.27 | 0.2 | 0.737 | 0.449 | 0.592 | 0.23 | 0.168 | 0.426 | 0.275 | 0.273 | 0.143 | 0.136 |
| EKVX | 0.339 | 0.389 | 0.296 | 0.247 | 0.227 | 0.193 | 0.181 | 0.155 | 0.132 | 0.132 | 0.225 | 0.247 | 0.229 | 0.209 | 0.188 | 1 | 1.01 | 0.666 | 0.413 | 0.311 |
| NCI-H522 | 0.747 | 0.648 | 0.574 | 0.494 | 0.462 |  |  |  |  |  | 0.69 | 0.624 | 0.669 | 0.48 | 0.56 | 0.603 | 0.686 | 0.543 | 0.387 | 0.385 |
| NCI-H1755 | 0.729 | 0.673 | 0.615 | 0.404 | 0.385 | 1.07 | 0.815 | 0.935 | 0.565 | 0.457 | 0.609 | 0.594 | 0.541 | 0.463 | 0.474 | 0.767 | 0.765 | 0.677 | 0.446 | 0.378 |
| NCI-H647 | 0.538 | 0.345 | 0.322 | 0.136 | 0.127 | 1.15 | 0.565 | 0.478 | 0.192 | 0.207 | 0.564 | 0.412 | 0.331 | 0.14 | 0.15 | 0.7 | 0.416 | 0.301 | 0.227 | 0.169 |
| LC-2-ad | 0.989 | 0.917 | 0.828 | 0.907 | 0.715 | 1.1 | 0.987 | 0.924 | 0.683 | 0.456 | 0.549 | 0.564 | 0.538 | 0.336 | 0.362 | 0.748 | 0.778 | 0.759 | 0.835 | 0.704 |
| NCI-H1793 | 0.449 | 0.274 | 0.279 | 0.183 | 0.22 | 0.422 | 0.346 | 0.305 | 0.308 | 0.276 | 0.405 | 0.272 | 0.196 | 0.203 | 0.207 | 0.528 | 0.329 | 0.221 | 0.203 | 0.213 |

From the supplement of paper PMC10307832
